Experimental data published in patent US7686852B2, “Monoazo dyes” (Clariant Finance (BVI) Limited, priority 2004, dated 2010).

What was measured:
[1] = Comparative Test Series 3: stability of dye solution after cooling to 25° C. and 48 hours, filtration test; type: physicochemical; set-up: key to Aspect of the solution after the 48 hours: 1): after cooling down turned immediately cloudy; 2): remained clear after cooling down; key to Grade of the visual inspection of the upper filter: a grade of 5 signifies no residue; 4 signifies little, fine residues; 3 signifies bigger residues; 2 signifies coarse residues; 1 signifies a compact layer of precipitated dyestuff; details: for Aspect of the solution after the 48 hours: dissolved at 90° C., kept at 25° C. for 48 hour; for time for passing of the 200 ml of dye solution trough the 2 filter layers / Grade of the visual inspection of the upper filter: after 48 hour at 25° C.; for Grade of the visual inspection of the upper filter: filtered through 2 paper filters
Experimental: In 160 ml of water a certain amount of dyestuff was dissolved at 90° C. and the resulting solution was diluted to 200 ml by adding water of 90° C. This solution was put in a water bath kept at 25° C. and after the dye solution was at 25° the dye solution was let for 48 hour without stirring or shaking at 25° C.
The solution was visually inspected first and the filtrated trough 2 layers of paper filters of 70 mm diameter (Typ 1450 CV obtainable from Schleicher & Schuell MicroScience GmbH
Hahnestrasse 3; D-37586 Dassel). The time for passing of the 200 ml of dye solution was measured and the upper filter was inspected visually. Grades are given and a grade of 5 signifies no residue, 4 signifies little, fine residues, 3 signifies bigger residues, 2 signifies coarse residues and 1 signifies a compact layer of precipitated dyestuff.

[2] = hot water, then cooling; cited from earlier work
[3] = Solubility in water / stability of stock solutions; type: physicochemical; details: room temperature

| Aspect of the solution after the 48 hours ([1]; 6 g/Liter in water) | time for passing of the 200 ml of dye solution trough the 2 filter layers ([1]; 6 g/Liter) [s] | Grade of the visual inspection of the upper filter ([1]; 6 g/Liter) | Aspect of the solution after the 48 hours ([1]; 12 g/Liter in water) | time for passing of the 200 ml of dye solution trough the 2 filter layers ([1]; 12 g/Liter) [s] | Grade of the visual inspection of the upper filter ([1]; 12 g/Liter) | Aspect of the solution after the 48 hours ([1]; 20 g/Liter in water) | time for passing of the 200 ml of dye solution trough the 2 filter layers ([1]; 20 g/Liter) [s] | Grade of the visual inspection of the upper filter ([1]; 20 g/Liter) | Aspect of the solution after the 48 hours ([1]; 30 g/Liter in water) | time for passing of the 200 ml of dye solution trough the 2 filter layers ([1]; 30 g/Liter) [s] | Grade of the visual inspection of the upper filter ([1]; 30 g/Liter) | Structure (SMILES) | solubility in water [2] | stability of stock solutions [3] |
| --- | --- | --- | --- | --- | --- | --- | --- | --- | --- | --- | --- | --- | --- | --- |
| 1) | 16 | 4 | 1) | 27 | 3 | 1) | 33 | 2 to 3 | 1) | 95 | 1 to 2 | Cc1ccc(S(=O)(=O)Oc2ccc(/N=N/c3ccc(Nc4ccc(S(=O)(=O)O)cc4[N+](=O)[O-])cc3)c(C)c2)cc1 | soluble in hot water, but partly reprecipitates on cooling |  |
| 2) | 6 | 4 | 2) | 7 | 3 to 4 | 2) | 7 | 3 | 2) | 8 | 2 to 3 | Cc1cc(OS(=O)(=O)c2ccc(C(C)(C)C)cc2)ccc1/N=N/c1ccc(Nc2ccc(S(=O)(=O)O)cc2[N+](=O)[O-])cc1 [Example 1] |  | remain clear for several weeks even at room temperature |
